Reference: article PMC9516332 (Frontiers in Oncology, 2022)
Where two headings read alike, the source gives them in different places.

Tests used:
[1] = target: panel of 255 wild-type kinases (Homo sapiens, UniProt P42684); assay: Kinase panel profiling at 1 µmol/L (MSA or IMAP), percentage inhibition; assay type: biochemical; conditions: ARG kinase assay; 1 µmol/L single concentration; read-out: %-inhibition ARG
[2] = target: panel of 255 wild-type kinases (Homo sapiens, UniProt O00311); assay: as above; assay type: biochemical; conditions: CDC7/ASK kinase assay; 1 µmol/L single concentration; read-out: %-inhibition CDC7/ASK
[3] = system: AP-1060 (ETV6-NTRK3); assay: Cell viability assay; conditions: read-out: IC50 in cell proliferation assay
[4] = system: 134 cancer cell lines; assay: Cell viability assay (ATPlite, 72 hours), IC50 on cancer cell line panel

Compound: C=CC(=O)N1CCC([C@@H]2CCNc3c(C(N)=O)c(-c4ccc(Oc5ccccc5)cc4)nn32)CC1 [zanubrutinib]
- inhibition at 1 µM [1]: -3.68%
- inhibition at 1 µM [2]: -4%
- IC50 [3]: > 31.6 µM
- IC50 ([4]; HEC-6, read-out: IC50 in cell proliferation assay): 0.355 µM
- IC50 ([4]; Homo sapiens, 769-P, read-out: IC50 in cell proliferation assay): 4.48 µM
- IC50 ([4]; Homo sapiens, 786-0, read-out: IC50 in cell proliferation assay): 2.19 µM
- IC50 ([4]; Homo sapiens, A 172, read-out: IC50 in cell proliferation assay): > 31.6 µM
- IC50 ([4]; Homo sapiens, A204, read-out: IC50 in cell proliferation assay): 27.9 µM
- IC50 ([4]; Homo sapiens, A498, read-out: IC50 in cell proliferation assay): 5.51 µM
- IC50 ([4]; Homo sapiens, A549, read-out: IC50 in cell proliferation assay): 24.7 µM
- IC50 ([4]; Homo sapiens, A704, read-out: IC50 in cell proliferation assay): > 31.6 µM
- IC50 ([4]; Homo sapiens, A-375, read-out: IC50 in cell proliferation assay): > 31.6 µM
- IC50 ([4]; Homo sapiens, A-427, read-out: IC50 in cell proliferation assay): 8.55 µM
- IC50 ([4]; Homo sapiens, ACHN, read-out: IC50 in cell proliferation assay): 2.75 µM
- IC50 ([4]; Homo sapiens, AN3-CA, read-out: IC50 in cell proliferation assay): 29.8 µM
- IC50 ([4]; Homo sapiens, ASPC1, read-out: IC50 in cell proliferation assay): 7.83 µM
- IC50 ([4]; Homo sapiens, AU565, read-out: IC50 in cell proliferation assay): 0.303 µM
- IC50 ([4]; Homo sapiens, BT-20, read-out: IC50 in cell proliferation assay): 15.1 µM
- IC50 ([4]; Homo sapiens, BT-474, read-out: IC50 in cell proliferation assay): 0.213 µM
- IC50 ([4]; Homo sapiens, BT-549, read-out: IC50 in cell proliferation assay): 12 µM
- IC50 ([4]; Homo sapiens, BXPC-3, read-out: IC50 in cell proliferation assay): 3.04 µM
- IC50 ([4]; Homo sapiens, C-33-A, read-out: IC50 in cell proliferation assay): 1.1 µM
- IC50 ([4]; Homo sapiens, CAL-27, read-out: IC50 in cell proliferation assay): 1.37 µM
- IC50 ([4]; Homo sapiens, CCF-STTG1, read-out: IC50 in cell proliferation assay): > 31.6 µM
- IC50 ([4]; Homo sapiens, CCRF-CEM, read-out: IC50 in cell proliferation assay): 13.2 µM
- IC50 ([4]; Homo sapiens, COLO 205, read-out: IC50 in cell proliferation assay): > 31.6 µM
- IC50 ([4]; Homo sapiens, COLO-829, read-out: IC50 in cell proliferation assay): > 31.6 µM
- IC50 ([4]; Homo sapiens, DLD-1, read-out: IC50 in cell proliferation assay): > 31.6 µM
- IC50 ([4]; Homo sapiens, DU-145, read-out: IC50 in cell proliferation assay): 1.05 µM
- IC50 ([4]; Homo sapiens, DU-4475, read-out: IC50 in cell proliferation assay): 18.1 µM
- IC50 ([4]; Homo sapiens, Daoy, read-out: IC50 in cell proliferation assay): 23.4 µM
- IC50 ([4]; Homo sapiens, DoTc2-4510, read-out: IC50 in cell proliferation assay): 1.5 µM
- IC50 ([4]; Homo sapiens, EOL1, read-out: IC50 in cell proliferation assay): 2.74 µM
- IC50 ([4]; Homo sapiens, FaDu, read-out: IC50 in cell proliferation assay): 0.751 µM
- IC50 ([4]; Homo sapiens, G-361, read-out: IC50 in cell proliferation assay): 31.4 µM
- IC50 ([4]; Homo sapiens, HCC827, read-out: IC50 in cell proliferation assay): 1.33 µM
- IC50 ([4]; Homo sapiens, HCC4006, read-out: IC50 in cell proliferation assay): 1.36 µM
- IC50 ([4]; Homo sapiens, HCT-15, read-out: IC50 in cell proliferation assay): 15.7 µM
- IC50 ([4]; Homo sapiens, HCT-116, read-out: IC50 in cell proliferation assay): > 31.6 µM
- IC50 ([4]; Homo sapiens, HEC-1, read-out: IC50 in cell proliferation assay): > 31.6 µM
- IC50 ([4]; Homo sapiens, HEC-1B, read-out: IC50 in cell proliferation assay): 5.59 µM
- IC50 ([4]; Homo sapiens, HL-60, read-out: IC50 in cell proliferation assay): > 31.6 µM
- IC50 ([4]; Homo sapiens, HT, read-out: IC50 in cell proliferation assay): > 31.6 µM
- IC50 ([4]; Homo sapiens, HT-1080, read-out: IC50 in cell proliferation assay): > 31.6 µM
- IC50 ([4]; Homo sapiens, Hs746T, read-out: IC50 in cell proliferation assay): > 31.6 µM
- IC50 ([4]; Homo sapiens, Hs-578T, read-out: IC50 in cell proliferation assay): 28.4 µM
- IC50 ([4]; Homo sapiens, HuTu80, read-out: IC50 in cell proliferation assay): 0.961 µM
- IC50 ([4]; Homo sapiens, J82, read-out: IC50 in cell proliferation assay): > 31.6 µM
- IC50 ([4]; Homo sapiens, Jurkat E6.1, read-out: IC50 in cell proliferation assay): 19.1 µM
- IC50 ([4]; Homo sapiens, K562, read-out: IC50 in cell proliferation assay): > 31.6 µM
- IC50 ([4]; Homo sapiens, KATO III, read-out: IC50 in cell proliferation assay): 5.47 µM
- IC50 ([4]; Homo sapiens, KG-1, read-out: IC50 in cell proliferation assay): 2.85 µM
- IC50 ([4]; Homo sapiens, KLE, read-out: IC50 in cell proliferation assay): 2.73 µM
- IC50 ([4]; Homo sapiens, KMS-11, read-out: IC50 in cell proliferation assay): 22.6 µM
- IC50 ([4]; Homo sapiens, KU812, read-out: IC50 in cell proliferation assay): 12.3 µM
- IC50 ([4]; Homo sapiens, Kasumi 1, read-out: IC50 in cell proliferation assay): 3.36 µM
- IC50 ([4]; Homo sapiens, LC-2-ad, read-out: IC50 in cell proliferation assay): 16.5 µM
- IC50 ([4]; Homo sapiens, LNCaP-Clone-FGC, read-out: IC50 in cell proliferation assay): 13.7 µM
